Results reported in patent US11149135B2, “Application of cyclodextrins (CDS) for remediation of perfluoroalkyl substances (PFASS)” (THE FLORIDA INTERNATIONAL UNIVERSITY BOARD OF TRUSTEES, priority 2017, dated 2021).

How the values were obtained:
Assay type in all cases: binding
[1] = 19F NMR titration, average association constants of PFECAs with α-CD; set-up: key: *: no significant association; settings: 50% D2O/50% H2O, pH 7; averaged over individual fluorines
Protocol: (§1) ^19F NMR spectroscopy was performed with a 400 MHz Bruker instrument with a quad probe (operating at 376.498 MHz for 19F). Hexafluorobenzene was used as the internal standard with a chemical shift of −164.9 ppm. For the titration experiments, the chemical shift of each peak was recorded, and the 1:1 and 2:1 association constants were calculated in GraphPad Prism and Mathworks Matlab by Ramos Cabrer et al.'s, Langmuir 1999, 15, 5489-5495 method.
(§2) The ^19F NMR spectrum of each PFECA was monitored as a function of CD concentration. The individual CD:PFECA association constants were determined via nonlinear least-squares regression analysis of the change in observed chemical shift. The association constants determined for individual fluorines were then averaged to find the average association constant for each PFECA with each CD.

[2] = 19F NMR titration, average association constants of PFECAs with β-CD; settings: for association constant with β-CD: 1:1 β-CD:PFECA; for Average association constant with β-CD (1:1): 1:1 β-CD:PFECA (unmarked values are 1:1); for Average association constant with β-CD (1:1) / Average association constant with β-CD (2:1): pH 7; for Decrease (1:1): decrease of 1:1 β-CD association constant versus legacy PFAS of the same chain length; for Emerging PFAS Kassoc (1:1): 1:1 (unmarked values taken as 1:1); for Average association constant with β-CD (2:1): 2:1 β-CD:PFECA
Protocol: as §1, §2

[3] = 19F NMR titration, average association constants of PFECAs with γ-CD; set-up: key: *: no significant association; settings: 50% D2O/50% H2O, pH 7; averaged over individual fluorines
Protocol: as §1, §2

[4] = 19F NMR association constants of β-CD:legacy PFAS complexes; settings: for K1:1 association constant: 1:1 β-CD:PFAS complex; for K1:1 association constant / K2:1 association constant: aqueous media, room temperature; for K2:1 association constant: 2:1 β-CD:PFAS complex; for Legacy PFAS Kassoc (1:1): 1:1 (unmarked value taken as 1:1)
Protocol: A detailed comprehensive Nuclear Magnetic Resonance (NMR) spectral study of the complexation of PFASs to β-CD was conducted, Weiss-Errico and O'Shea, J. Hazardous Mat. 2017 329, 57-65, with highlights herein. […] Competition studies with adamantane-carboxylic acid and phenol confirmed the persistence of the β-CD:PFAS complex. The aqueous solution pH, ionic strength, and the presence of humic acid have only a modest influence on the β-CD:PFAS complexes. Table 2 gives the association constants for β-CD complexes with a sample of the PFASs studied, including perfluoroheptanoic acid (PFHpA), perfluorooctanoic acid (PFOA), perfluorononanoic acid (PFNA), perfluorooctane sulfonate (PFOS), and perfluorooctanesulfonamide (PFOSA).

[5] = estimated based on association constants from PFOA and PFNA

SMILES | Average association constant with α-CD [1] | Average association constant with β-CD (1:1) [2] | Decrease (1:1) [2] | Emerging PFAS Kassoc (1:1) ([2]; β-CD:PFECA) | Average association constant with γ-CD [3] | further results
O=C(O)C(F)(F)C(F)(F)C(F)(F)OC(F)(C(F)(F)F)C(F)(F)F [PFDMMOBA, perfluoro(5-oxa-6-dimethylhexanoic) acid] | * | 2.66 +/− 0.61 × 10^4 M^−1 | ~10 | 2.66 +/− 0.61 × 10^4 M^−1 | 6.85 +/− 1.82 × 10^2 M^−1 | association constant with β-CD [2]: 26600 M⁻¹; stronger complexation with β-CD than PFPrOPrA ([2]; ratio of β-CD association constants, PFDMMOBA versus PFPrOPrA): ~40 ×
O=S(=O)(O)C(F)(F)C(F)(F)C(F)(F)C(F)(F)C(F)(F)C(F)(F)C(F)(F)C(F)(F)F [PFOS, perfluorooctane sulfonate] | – | – | – | – | – | K1:1 association constant [4]: 6.96 ± 0.79 × 10^5 M^−1; K2:1 association constant [4]: 5.95 ± 1.70 × 10^4 M^−1
NS(=O)(=O)C(F)(F)C(F)(F)C(F)(F)C(F)(F)C(F)(F)C(F)(F)C(F)(F)C(F)(F)F [PFOSA, perfluorooctanesulfonamide] | – | – | – | – | – | K1:1 association constant [4]: 1.02 ± 0.16 × 10^5 M^−1; K2:1 association constant [4]: 2.70 ± 0.57 × 10^4 M^−1
O=C(O)C(F)(F)C(F)(F)C(F)(F)C(F)(F)F [PFPA, perfluoropentanoic acid] | – | – | – | – | – | Legacy PFAS Kassoc (1:1) ([4]; β-CD:legacy PFAS): 7.60 +/− 0.44 × 10^2 M^−1
O=C(O)C(F)(F)C(F)(F)C(F)(F)C(F)(F)C(F)(F)C(F)(F)F [PFHpA, perfluoroheptanoic acid] | – | – | – | – | – | K1:1 association constant [4]: 4.30 ± 0.85 × 10^5 M^−1; K2:1 association constant [4]: 2.30 ± 0.27 × 10^3 M^−1; Legacy PFAS Kassoc (1:1) ([4]; β-CD:legacy PFAS): 4.30 +/− 0.85 x 10^5 (1:1) M^−1; Legacy PFAS Kassoc (2:1) ([4]; β-CD:legacy PFAS, 2:1): 2.30 +/− 0.27 × 10^3 (2:1) M^−1
O=C(O)C(F)(F)OC(F)(F)C(F)(F)OC(F)(F)C(F)(F)C(F)(F)C(F)(F)F [PFO2DA, perfluoro(3,6-dioxadecanoic) acid] | * | 1.38 +/− 0.40 × 10^4 M^−1 | ~10 | 1.38 +/− 0.40 × 10^4 (1:1) M^−1 | 1.39 +/− 0.38 × 10^3 M^−1 | Average association constant with β-CD (2:1) [2]: 7.72 +/− 2.43 × 10^3 M^−1
O=C(O)C(F)(OC(F)(F)C(F)(F)C(F)(F)F)C(F)(F)F (stereo not drawn) [PFPrOPrA, Perfluoro(2-methyl-3-oxahexanoic) acid] | 2.36 +/− 1.10 × 10^2 M^−1 | 7.45 +/− 4.27 × 10^2 M^−1 | ~100 | 7.45 +/− 4.27 × 10^2 M^−1 | * | association constant with β-CD [2]: 745 M⁻¹
O=C(O)C(F)(F)C(F)(F)C(F)(F)C(F)(F)C(F)(F)C(F)(F)C(F)(F)C(F)(F)C(F)(F)F [PFDA, perfluorodecanoic acid] | – | – | – | – | – | Legacy PFAS Kassoc (1:1), estimated [4, 5]: ~10^5 (1:1) M^−1; Legacy PFAS Kassoc (2:1), estimated [4, 5]: ~10^3 (2:1) M^−1
O=C(O)C(F)(F)OC(F)(F)F [PFMOPrA, Perfluoro(3-oxabutanoic) acid] | 2.60 +/− 1.14 × 10^1 M^−1 | 1.54 +/− 0.52 × 10^2 M^−1 | <10 | 1.54 +/− 0.52 × 10^2 M^−1 | * | –
O=C(O)C(F)(F)OC(F)(F)C(F)(F)OC(F)(F)C(F)(F)OC(F)(F)F [PFO3DA, perfluoro(3,6,9-trioxadecanoic) acid] | 9.28 +/− 2.80 × 10^1 M^−1 | 3.03 +/− 1.09 × 10^3 M^−1 | ~100 | 3.03 +/− 1.09 × 10^3 (1:1) M^−1 | 7.60 +/− 2.10 × 10^2 M^−1 | Average association constant with β-CD (2:1) [2]: 4.12 +/− 1.08 × 10^3 M^−1
O=C(O)C(F)(F)OC(F)(F)C(F)(F)OC(F)(F)C(F)(F)OC(F)(F)C(F)(F)C(F)(F)C(F)(F)F [PFO3TDA, perfluoro-(3,6,9-trioxatridecanoic) acid] | * | 5.93 +/− 1.20 × 10^5 M^−1 | – | – | 3.48 +/− 1.50 × 10^3 M^−1 | Average association constant with β-CD (2:1) [2]: 1.36 +/− 0.28 × 10^5 M^−1
O=C(O)C(F)(F)C(F)(F)C(F)(F)C(F)(F)C(F)(F)C(F)(F)C(F)(F)C(F)(F)F [PFNA, perfluorononanoic acid] | – | – | – | – | – | K1:1 association constant [4]: 3.37 ± 0.35 × 10^5 M^−1; K2:1 association constant [4]: 7.80 ± 0.66 × 10^3 M^−1
O=C(O)C(F)(F)OC(F)(F)C(F)(F)OC(F)(F)F [PFO2HpA, perfluoro(3,6-dioxheptanoic) acid] | 5.34 +/− 0.48 × 10^1 M^−1 | 4.74 +/− 2.04 × 10^2 M^−1 | ~1000 | 4.74 +/− 2.04 × 10^2 (1:1) M^−1 | 8.43 +/− 3.24 × 10^1 M^−1 | Average association constant with β-CD (2:1) [2]: 3.87 +/− 1.40 × 10^2 M^−1; Emerging PFAS Kassoc (2:1) ([2]; β-CD:PFECA, 2:1): 3.87 +/− 1.40 × 10^2 (2:1) M^−1
O=C(O)C(F)(F)C(F)(F)OC(F)(F)F [PFMOBA, perfluoro(4-oxapentanoic) acid] | 3.37 +/− 1.40 × 10^1 M^−1 | 1.48 +/− 0.36 × 10^3 M^−1 | ~10 | 1.48 +/− 0.36 × 10^3 M^−1 | * | association constant with β-CD [2]: 1480 M⁻¹
